Laboratory results as given in patent US7253286B2, “Nitrogen-containing aromatic derivatives” (Eisai Co., Ltd, priority 2000, dated 2007).

What was measured:
[1] = tested on: Human Umbilical Vein Endothelial Cells (HUVECs); assay: Inhibition against sandwich tube formation by vascular endothelial cells in response to stimulation by VEGF; type: cell-based; settings: HUVEC in collagen gel sandwich, stimulation by VEGF (25 ng/ml VEGF and 10 ng/ml EGF), 4th day, total tube length, read-out: IC50 (concentration required for 50% inhibition of tube formation)
Outline: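 HUVECs were sandwiched between collagen gel layers in serum-free medium with 25 ng/ml VEGF plus 10 ng/ml EGF, with test substance added above the gel at 37 °C. On day 4 tubes were MTT-stained and total tube length measured by image analysis. IC50 is the concentration halving tube length relative to no-compound wells.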

VEGFR2 = biological target: T1, VEGFR2 (Homo sapiens, UniProt P35968); assay: Inhibition against VEGFR2 kinase (receptor tyrosine kinase activity, HTRF method); type: biochemical; settings: His6-VEGFR2 cytoplasmic domain, biotin-poly(GT) substrate, ATP, 30° C. 10 minutes, read-out: IC50 (concentration required for 50% inhibition of VEGFR2 kinase activity)
T1 construct: coding for the cytoplasmic domain, beginning with lysine 791 and including the termination codon; made in house; host or cells: Sf9 insect cells (baculovirus, pFastBacHis)
T1 sequence (P35968 786-1356 limits assumed): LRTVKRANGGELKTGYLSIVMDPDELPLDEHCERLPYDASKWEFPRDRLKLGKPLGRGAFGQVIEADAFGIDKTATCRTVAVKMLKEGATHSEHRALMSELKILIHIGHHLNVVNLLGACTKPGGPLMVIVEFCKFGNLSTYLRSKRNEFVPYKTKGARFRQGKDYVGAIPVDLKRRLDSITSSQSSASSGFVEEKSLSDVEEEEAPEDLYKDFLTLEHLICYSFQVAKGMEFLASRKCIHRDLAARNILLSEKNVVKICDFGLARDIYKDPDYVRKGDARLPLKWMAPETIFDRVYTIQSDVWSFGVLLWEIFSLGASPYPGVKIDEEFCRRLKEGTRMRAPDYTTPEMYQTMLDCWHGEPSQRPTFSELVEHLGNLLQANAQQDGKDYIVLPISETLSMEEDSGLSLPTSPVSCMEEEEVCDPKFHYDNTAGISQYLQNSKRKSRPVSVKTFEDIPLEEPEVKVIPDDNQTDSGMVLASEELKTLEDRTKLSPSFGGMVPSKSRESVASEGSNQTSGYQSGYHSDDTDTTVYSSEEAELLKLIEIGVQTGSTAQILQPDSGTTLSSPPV
Source text: Measurement of Inhibition Against Receptor Tyrosine Kinase Activity
This assay is used to determine inhibition of a test substance on tyrosine kinase activity. DNA coding for the cytoplasmic domain of VEGFR2 is obtained by total cDNA synthesis (Edwards M, International Biotechnology Lab 5(3), 19–25, 1987) or by cloning. Expression in an appropriate expression system can produce a polypeptide with tyrosine kinase activity. […] For VEGFR2 (Genbank Accession No. L04947), the 1.7 kb DNA fragment described by Terman et al. (Oncogene, 6(9), 1677–1683, 1991), coding for the cytoplasmic domain, beginning with lysine 791 and including the termination codon, was isolated from a human placental cDNA library (purchased from Clontech Laboratories, Inc.) and cloned in a Baculovirus expression vector (pFastBacHis, purchased from GIBCO BRL) The recombinant construct was transfected into insect cells (Spondoptea frugiperda9 (Sf9)) to prepare a recombinant Baculovirus. (Instructions for preparation and use of recombinant Baculovirus maybe found in standard texts, such as “Bac-To-Bac Baculovirus Expression System” (GIBCO BRL).) The cytoplasmic fragment starting from lysine 398 (FGFR1, Genbank Accession No. X52833), the cytoplasmic fragment starting from lysine 558 (PDGFRβ, Genbank Accession No. M21616) or the cytoplasmic fragment starting from lysine 974 (HGFR, Genbank Accession No. J02958) may be cloned and expressed by the same method for use in assays for other tyrosine kinases. EGFR was purchased from Sigma Co. (Product No. E-2645).
For expression of the VEGFR2 tyrosine kinase, Sf9 cells were infected with the VEGFR2 recombinant virus and collected after 48 hours. The collected cells were rinsed with ice-cooled phosphate buffered saline (PBS) and then resuspended using 20 ml of ice-cooled Lysis Buffer (50 mM Tris-HCl (pH 8.5), 5 mM 2-mercaptoethanol, 100 mM KCl, 1 mM phenylmethylsulfonyl fluoride, 1% (v/v) NP-40) per 1.5×10^8 cells. The suspension was centrifuged at 12,000 rpm for 30 minutes at 4° C. and the supernatant was obtained.
The supernatant was added to a Ni—NTA agarose column (3 ml, purchased from Qiagen) equilibrated with Buffer A {20 mM Tris-HCl (pH 8.5), 5 mM 2-mercaptoethanol, 500 mM KCl, 20 mM imidazole, 10% (v/v) glycerol}. The column was washed with 30 ml of Buffer A, and then with 6 ml of Buffer B {20 mM Tris-HCl (pH 8.5), 5 mM 2-mercaptoethanol, 1M KCl, 10% (v/v) glycerol}, and finally with 6 ml of Buffer A. After washing, it was eluted with 6 ml of Buffer C {20 mM Tris-HCl (pH8.5), 5mM2-mercaptoethanol, 100 mMKCl, 100 mM imidazole, 10% (v/v) glycerol}. The eluate was placed on a dialysis membrane (purchased from Spectrum Laboratories) and dialyzed with a dialysis buffer {20 mM Tris-HCl (pH 7.5), 10% (v/v) glycerol, 1 mM dithiothreitol, 0.1 mM Na3VO4, 0.1 mM EGTA}. After dialysis, it was supplied for SDS-electrophoresis, and the recombinant protein (His6-VEGFR2, cytoplasmic domain of VEGFR2 fused with 6 histidine residues at the N-terminus) detected at a molecular weight of approximately 100 kDa with Coumassie Brilliant Blue staining was assayed using BSA (bovine serum albumin, purchased from Sigma Co.) as the standard substance, and stored at −80° C. until use. Using the same method for the cytoplasmic domains of FGFR1, PDGFRβ and HGFR yielded respective recombinant proteins fused with 6 histidine residues at the N-termini (His6-FGFR1, His6-PDGFRβ or His6-HGFR).
The tyrosine kinase reaction was conducted as follows. […]

Row | IC50 (VEGFR2) [nM] | Compound | IC50 [1] [nM]
1 | 51 | COc1ccc(NC(=O)Nc2ccc(Oc3ccnc4cc(OCCCc5ccncc5)c(C#N)cc34)cc2)cc1 [Example 1] | 310
2 | 15 | COCCOc1cc2nccc(Oc3ccc(NC(=O)Nc4ccccc4)cc3)c2cc1C#N [Example 65, N-(4-(6-cyano-7-(methoxyethoxy)-4-quinolyl)oxyphenyl)-N′-phenylurea] | 5.9
3 | 4.2 | COCCOc1cc2nccc(Oc3ccc(NC(=O)NC4CC4)cc3)c2cc1C(N)=O [Example 116, 4-(4-((Cyclopropylamino)carbonyl)aminophenoxy)-7-(2-methoxyethoxy)-6-quinolinecarboxamide] | 8.1
4 | 8.7 | COc1cc2nccc(Oc3ccc(NC(=O)NC4CC4)cc3)c2cc1C(N)=O [Example 121, 4-(4-((Cyclopropylamino)carbonyl)aminophenoxy)-7-methoxy-6-quinolinecarboxamide] | 42
5 | 25 | O=C(Nc1ccc(Oc2ncnc3[nH]c(-c4ccc(OC[C@H](O)CN5CCCC5)cc4)cc23)cc1Cl)NC1CC1 [Example 159, 1-(2-Chloro-4-{6-[4-((2R)-2-hydroxy-3-pyrrolidinopropoxy)phenyl]-7H-pyrrolo[2,3-d]pyrimidin-4-yloxy]phenyl}-3-cyclopropylurea] | 0.6
6 | 23 | COCCOc1cc2nccc(Sc3ccc(NC(=O)Nc4ccc(F)cc4)s3)c2cc1C#N [Example 253, 1-{5-[6-Cyano-7-(2-methoxyethoxy)-quinolin-4-ylsulfanyl]thiophen-2-yl}-3-(4-fluorophenyl)urea] | 40
7 | 6.2 | COc1cc2nccc(Oc3ccc(NC(=O)Nc4ccc(F)cc4)cc3)c2cc1NC(C)=O [Example 265, N-(4-{4-[3-(4-Fluorophenyl)ureido]phenoxy}-7-methoxyquinolin-6-yl)acetamide] | 0.6
8 | 5.4 | COc1cc2nccc(Oc3ccc(NC(=O)Nc4ccc(F)cc4)cc3)c2cc1NS(C)(=O)=O [Example 266, N-(4-{4-[3-(4-Fluorophenyl)ureido]phenoxy}-7-methoxyquinolin-6-yl)methanesulfoneamide] | 0.6
9 | 26 | O=C(Nc1ccc(Oc2ncnc3[nH]c(-c4ccccn4)cc23)cc1F)NC1CC1 [Example 283, 1-Cyclopropyl-3-[2-fluoro-4-(6-(pyridin-2-yl)-7H-pyrrolo[2,3-d]pyrimidin-4-yloxy)phenyl]urea] | 36
10 | 5.3 | COc1cc2nccc(Oc3ccc4c(ccn4C(=O)NCCF)c3)c2cc1C(N)=O [Example 314, 6-Carbamoyl-4-[1-(2-fluoroethylcarbamoyl)1H-indol-5-yloxy]-7-methoxyquinoline] | 4.2
11 | 4.6 | CONC(=O)c1cc2c(Oc3ccc(NC(=O)Nc4nccs4)cc3)ccnc2cc1OC [Example 346, N6-Methoxy-7-methoxy-4-(4-(((1,3-thiazol-2-ylamino)carbonyl)amino)phenoxy)-6-quinolinecarboxamide] | 25
12 | 2.6 | COCCOc1cc2nccc(Oc3ccc(NC(=O)NC4CC4)c(Cl)c3)c2cc1C(N)=O [Example 381, 4-(3-Chloro-4-(cyclopropylaminocarbonyl)aminophenoxy)-7-(2-methoxyethoxy)-6-quinolinecarboxamide] | 4.7
13 | 9 | NC(=O)c1cc2c(Oc3ccc(NC(=O)NC4CC4)c(Cl)c3)ccnc2cc1OCCCN1CCOCC1 [Example 382, 4-(3-Chloro-4-(cyclopropylaminocarbonyl)aminophenoxy)-7-(3-(4-morpholino)propoxy)-6-quinolinecarboxamide] | 4.6
14 | 15 | CN1CCC(COc2cc3nccc(Oc4ccc(NC(=O)NC5CC5)c(Cl)c4)c3cc2C(N)=O)CC1 [Example 394, 4-(3-Chloro-4-(cyclopropylaminocarbonyl)aminophenoxy)-7-((1-methyl-4-piperidyl)methoxy)-6-quinolinecarboxamide] | 
15 | 3.5 | COCCNC(=O)c1cc2c(Oc3ccc(NC(=O)NC4CC4)c(Cl)c3)ccnc2cc1OC [Example 398, N6-(2-Methoxyethyl)-4-(3-chloro-4-(((cyclopropylamino)carbonyl)amino)phenoxy)-7-methoxy-6-quinolinecarboxamide] | 
16 | 2.2 | COc1cc2nccc(Oc3ccc(NC(=O)NC4CC4)c(Cl)c3)c2cc1C(=O)NCCO [Example 410, N6-(2-Hydroxyethyl)-4-(3-chloro-4-(((cyclopropylamino)carbonyl)amino)phenoxy)-7-methoxy-6-quinolinecarboxamide] | 
17 | 3.2 | COc1cc2nccc(Oc3ccc(NC(=O)NC4CC4)c(Cl)c3)c2cc1C(=O)NCC1OCCO1 [Example 413, N6-(1,3-Dioxolan-2-ylmethyl)-4-(3-chloro-4-(((cyclopropylamino)carbonyl)amino)phenoxy)-7-methoxy-6-quinolinecarboxamide] | 
18 | 22 | COc1cc2nccc(Oc3ccc(N(C)C(=O)Nc4ccc(F)cc4)cc3)c2cc1C(=O)NC1CC1 [Example 435] | 
19 | 9.9 | CONC(=O)c1cc2c(Oc3ccc(N(C)C(=O)Nc4ccc(F)cc4)cc3)ccnc2cc1OC [Example 437, N6-Methoxy-4-(4-(((4-fluoroanilino)carbonyl)(methyl)amino)phenoxy)-7-methoxy-6-quinolinecarboxamide] | 
20 | 2.8 | COc1cc2nccc(Oc3ccc(NC(=O)NC4CC4)c(Cl)c3)c2cc1C(=O)NCC#N [Example 441, N6-Cyanomethyl-4-(3-chloro-4-(((cyclopropylamino)carbonyl)amino)phenoxy)-7-methoxy-6-quinolinecarboxamide] | 3.6
21 | 2.2 | COc1cc2nccc(Oc3ccc(NC(=O)NC4CC4)c(Cl)c3)c2cc1C(=O)NCC(N)=O [Example 449, N6-(2-Amino-2-oxoethyl)-4-(3-chloro-4-(((cyclopropylamino)carbonyl)amino)phenoxy)-7-methoxy-6-quinolinecarboxamide] | 
22 | 5.9 | CCCC(=O)Nc1cc(Oc2ccc(NC(=O)Nc3ccc(F)cc3)cc2)ccn1 [Example 463, N-[4-(2-Butanoylaminopyridin-4-yl)oxyphenyl]-N′-(4-fluorophenyl)urea] | 26
23 | 13 | O=C(Nc1ccc(F)cc1)Nc1ccc(Oc2ccnc(NC(=O)c3cccnc3)c2)cc1 [Example 465, N-[4-(2-Nicotinoylaminopyridin-4-yl)oxyphenyl]-N′-(4-fluorophenyl)urea] | 
24 | 14 | CC(=O)Nc1cc(Oc2ccc(NC(=O)Nc3cccc(S(C)(=O)=O)c3)cc2)ncn1 [Example 556, N-(6-(4-(3-(3-Methylsulfonylphenyl)ureido)phenoxy)pyrimidin-4-yl)acetamide] | 
